Several values for one entry are separate records, joined by “and”; a condition that tells them apart may be missing. Identical values can stand only once. Toxic doses and inconclusive results are not listed.
Tested on: BDF1 mice, P388 leukemia ip, median survival T/C
Experiment: NCI In Vivo Anticancer Drug Screen. Data for tumor model P388 Leukemia (intraperitoneal) in B6D2F1 (BDF1) mice
Conditions: endpoint: median survival time, higher = longer survival
How it was run: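 Antitumour effect was judged in vivo: survival in drug-treated mice, normalised to that of vehicle-dosed controls, gives the reported T/C.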

[1] = dose: 50.0 mg/kg/injection, schedule: Q01DX009 (ip), vehicle: saline with Tween-80
[2] = dose: 50.0 mg/kg/injection, schedule: Q04DX003 (ip), vehicle: saline with Tween-80
[3] = dose: 100.0 mg/kg/injection, schedule: Q04DX003 (ip), vehicle: saline with Tween-80
[4] = dose: 25.0 mg/kg/injection, schedule: Q01DX009 (ip), vehicle: Klucel (hydroxypropylcellulose) (HPC)
[5] = dose: 100.0 mg/kg/injection, schedule: Q01DX009 (ip), vehicle: Klucel (hydroxypropylcellulose) (HPC)
[6] = dose: 200.0 mg/kg/injection, schedule: Q01DX009 (ip), vehicle: Klucel (hydroxypropylcellulose) (HPC)
[7] = dose: 100.0 mg/kg/injection, schedule: Q01DX009 (ip), vehicle: saline with Tween-80
[8] = dose: 200.0 mg/kg/injection, schedule: Q01DX009 (ip), vehicle: saline with Tween-80
[9] = dose: 100.0 mg/kg/injection, schedule: Q04DX003 (ip), vehicle: Klucel (hydroxypropylcellulose) (HPC)
[10] = dose: 200.0 mg/kg/injection, schedule: Q04DX003 (ip), vehicle: Klucel (hydroxypropylcellulose) (HPC)
[11] = dose: 400.0 mg/kg/injection, schedule: Q01DX009 (ip), vehicle: Klucel (hydroxypropylcellulose) (HPC)
[12] = dose: 400.0 mg/kg/injection, schedule: Q04DX003 (ip), vehicle: Klucel (hydroxypropylcellulose) (HPC)
[13] = dose: 200.0 mg/kg/injection, schedule: Q04DX003 (ip), vehicle: saline with Tween-80
[14] = dose: 400.0 mg/kg/injection, schedule: Q04DX003 (ip), vehicle: saline with Tween-80
[15] = dose: 25.0 mg/kg/injection, schedule: Q01DX009 (ip), vehicle: saline
[16] = dose: 50.0 mg/kg/injection, schedule: Q01DX009 (ip), vehicle: saline

Structure (SMILES): Cc1ccc(C)c(CCN)c1
- T/C (dose: 25.0 mg/kg/injection, schedule: Q01DX009 (ip), vehicle: saline with Tween-80): 122 % of control
- T/C (dose: 25.0 mg/kg/injection, schedule: Q04DX003 (ip), vehicle: saline with Tween-80): 100 % of control
- T/C [1]: 104 % of control
- T/C [2]: 100 % of control
- T/C [3]: 100 % of control

Structure (SMILES): CCCCCCCCCCCCCC[N+](C)(C)CCCCCCCCCCCCCC
- T/C (dose: 6.25 mg/kg/injection, schedule: Q01DX009 (ip), vehicle: saline): 120 % of control
- T/C (dose: 16.5 mg/kg/injection, schedule: Q01DX009 (ip), vehicle: saline): 87 % of control
- T/C (dose: 17.0 mg/kg/injection, schedule: Q01DX009 (ip), vehicle: saline): 119 % of control
- T/C (dose: 25.0 mg/kg/injection, schedule: Q04DX003 (ip), vehicle: saline): 118 % of control
- T/C (dose: 37.0 mg/kg/injection, schedule: Q01DX009 (ip), vehicle: saline): 119 % of control
- T/C (dose: 50.0 mg/kg/injection, schedule: Q04DX003 (ip), vehicle: saline): 104 % of control

Structure (SMILES): CC1=CCCC(C)(C)C1/C=C/C(C)=C/C(=O)O (stereo not given)
- T/C (dose: 3.13 mg/kg/injection, schedule: Q01DX009 (ip), vehicle: Klucel (hydroxypropylcellulose) (HPC)): 111 % of control
- T/C (dose: 6.25 mg/kg/injection, schedule: Q01DX009 (ip), vehicle: Klucel (hydroxypropylcellulose) (HPC)): 103 % of control
- T/C (dose: 12.5 mg/kg/injection, schedule: Q01DX009 (ip), vehicle: Klucel (hydroxypropylcellulose) (HPC)): 99 % of control
- T/C [4]: 99 % of control
- T/C [5]: 104 % of control
- T/C [6]: 110 % of control

Structure (SMILES): CS(=O)(=O)C1CCCCC1SC#N (stereo not given)
- T/C [1]: 98 % of control
- T/C [7]: 115 % of control
- T/C [8]: 115 % of control

Structure (SMILES): CC(=O)N(C)c1ccc(N)cc1
- T/C (dose: 100.0 mg/kg/injection, schedule: Q04DX003 (ip), vehicle: saline): 100 % of control
- T/C (dose: 200.0 mg/kg/injection, schedule: Q04DX003 (ip), vehicle: saline): 100 % of control
- T/C (dose: 400.0 mg/kg/injection, schedule: Q04DX003 (ip), vehicle: saline): 109 % of control

Structure (SMILES): COC(OC)c1[nH]c(=S)[nH]c(=O)c1Cc1cc(C)ccc1C
- T/C (dose: 50.0 mg/kg/injection, schedule: Q04DX003 (ip), vehicle: Klucel (hydroxypropylcellulose) (HPC)): 95 % of control
- T/C (dose: 100.0 mg/kg/injection, schedule: Q01DX001 (ip), vehicle: Klucel (hydroxypropylcellulose) (HPC)): 104 % of control
- T/C [9]: 100 % of control
- T/C (dose: 200.0 mg/kg/injection, schedule: Q01DX001 (ip), vehicle: Klucel (hydroxypropylcellulose) (HPC)): 104 % of control
- T/C [10]: 95 % of control
- T/C (dose: 400.0 mg/kg/injection, schedule: Q01DX001 (ip), vehicle: Klucel (hydroxypropylcellulose) (HPC)): 109 % of control

Structure (SMILES): COc1cc(/C=N\NC(=O)OC(C)(C)C)cc(OC)c1OC
- T/C [1]: 118 % of control
- T/C [7]: 113 % of control
- T/C [8]: 86 % of control

Structure (SMILES): CC1(C)N=C(N)N=C(N)N1c1ccc(CCc2ccc(S(=O)(=O)F)cc2)c(Cl)c1
- T/C (dose: 33.0 mg/kg/injection, schedule: Q04DX003 (ip), vehicle: saline sonified): 122 % of control
- T/C [7]: 159 % of control

Structure (SMILES): CC(/C=C/C=C/c1ccccc1)=N\O
- T/C [6]: 90 % of control
- T/C [11]: 95 % of control

Structure (SMILES): C[C@]12CCC(=O)C(O)=C1CC[C@@H]1[C@@H]2CC[C@@]2(C)[C@H]1CC[C@]2(C)O
- T/C (dose: 66.0 mg/kg/injection, schedule: Q01DX009 (ip), vehicle: saline with Tween-80): 104 % of control
- T/C [7]: 95 % of control
- T/C (dose: 150.0 mg/kg/injection, schedule: Q01DX009 (ip), vehicle: saline with Tween-80): 95 % of control
- T/C (dose: 200.0 mg/kg/injection, schedule: Q01DX009 (ip), vehicle: saline sonified): 90 % of control
- T/C (dose: 400.0 mg/kg/injection, schedule: Q01DX009 (ip), vehicle: saline sonified): 90 % of control

Structure (SMILES): CCOC(=O)CCSC(C)(C)C(=O)OCC
- T/C [5]: 100 % of control
- T/C [9]: 104 % of control
- T/C [6]: 105 % of control
- T/C [10]: 104 % of control
- T/C [11]: 105 % of control
- T/C [12]: 100 % of control

Structure (SMILES): COC(OC)c1nc(SC)[nH]c(=O)c1C[N+](C)(C)C
- T/C [3]: 100 % of control
- T/C [13]: 100 % of control
- T/C [14]: 113 % of control

Structure (SMILES): COc1nc(NC2OCC(O)C(O)C2O)c(C(=O)CCl)c(=O)n1C (stereo not given)
- T/C (dose: 100.0 mg/kg/injection, schedule: Q04DX002 (ip), vehicle: saline with Tween-80): 104 % of control
- T/C (dose: 200.0 mg/kg/injection, schedule: Q04DX002 (ip), vehicle: saline with Tween-80): 100 % of control
- T/C (dose: 400.0 mg/kg/injection, schedule: Q04DX002 (ip), vehicle: saline with Tween-80): 100 % of control

Structure (SMILES): O=C(CC(NC(=O)OCc1ccccc1)C(=O)OCc1ccccc1)OCc1ccccc1 (stereo not given)
- T/C [7]: 97 % of control
- T/C [8]: 108 % of control
- T/C (dose: 400.0 mg/kg/injection, schedule: Q01DX009 (ip), vehicle: saline with Tween-80): 97 % of control

Structure (SMILES): C=C1C(=O)OC2CC(C)C3CC(=O)C(C)=C3C(O)C12 (stereo not given)
- T/C [4]: 120 % of control
- T/C (dose: 50.0 mg/kg/injection, schedule: Q01DX009 (ip), vehicle: Klucel (hydroxypropylcellulose) (HPC)): 112 % of control

Structure (SMILES): CC1=CCCC(C)C12CCC(C(C)(C)O)C2 (stereo not given)
- T/C [7]: 92 % of control
- T/C [3]: 100 % of control
- T/C [8]: 92 % of control
- T/C [13]: 113 % of control
- T/C [14]: 118 % of control

Structure (SMILES): CN(C)c1ccc(/C=C/c2ccnc3c(Cl)cccc23)cc1
- T/C [1]: 94 % of control
- T/C [7]: 98 % of control
- T/C [8]: 100 % of control

Structure (SMILES): CC(=O)Nc1cscc1NC(C)=O
- T/C [1]: 110 % of control and 123 % of control
- T/C [7]: 119 % of control and 123 % of control
- T/C [8]: 123 % of control

Structure (SMILES): CCCNCC(O)c1cc(C(F)(F)F)nc2c(C(F)(F)F)cccc12 (stereo not given)
- T/C [1]: 115 % of control
- T/C [7]: 104 % of control

Structure (SMILES): CCOC(=O)CCC(NC(=O)c1ccc(N(C)S(=O)(=O)c2ccc(C)cc2)c(F)c1)C(=O)OCC (stereo not given)
- T/C (dose: 75.0 mg/kg/injection, schedule: Q04DX003 (ip), vehicle: saline): 95 % of control
- T/C (dose: 150.0 mg/kg/injection, schedule: Q04DX003 (ip), vehicle: saline): 108 % of control
- T/C (dose: 300.0 mg/kg/injection, schedule: Q04DX003 (ip), vehicle: saline): 100 % of control

Structure (SMILES): O=C(C=C(C(F)(F)F)C(F)(F)F)c1ccc([N+](=O)[O-])cc1
- T/C (dose: 1.56 mg/kg/injection, schedule: Q01DX009 (ip), vehicle: other): 100 % of control
- T/C (dose: 3.13 mg/kg/injection, schedule: Q01DX009 (ip), vehicle: other): 109 % of control
- T/C (dose: 6.25 mg/kg/injection, schedule: Q01DX009 (ip), vehicle: other): 104 % of control

Structure (SMILES): CC(C)OC(CCCl)c1ccccc1 (stereo not given)
- T/C (dose: 75.0 mg/kg/injection, schedule: Q01DX009 (ip), vehicle: Klucel (hydroxypropylcellulose) (HPC)): 95 % of control
- T/C [9]: 100 % of control
- T/C (dose: 150.0 mg/kg/injection, schedule: Q01DX009 (ip), vehicle: Klucel (hydroxypropylcellulose) (HPC)): 109 % of control
- T/C [10]: 96 % of control
- T/C (dose: 300.0 mg/kg/injection, schedule: Q01DX009 (ip), vehicle: Klucel (hydroxypropylcellulose) (HPC)): 109 % of control
- T/C [12]: 100 % of control

Structure (SMILES): CC(=O)Nc1ccc(S(=O)(=O)NNC(=O)C(=O)Nc2cccc(Cl)c2)cc1
- T/C (dose: 50.0 mg/kg/injection, schedule: Q01DX005 (ip), vehicle: saline with Tween-80): 96 % of control
- T/C (dose: 100.0 mg/kg/injection, schedule: Q01DX005 (ip), vehicle: saline with Tween-80): 89 % of control
- T/C (dose: 200.0 mg/kg/injection, schedule: Q01DX005 (ip), vehicle: saline with Tween-80): 96 % of control

Structure (SMILES): IC12CC3CC(CC(C3)C1)C2
- T/C [3]: 90 % of control
- T/C [13]: 90 % of control
- T/C [14]: 86 % of control

Structure (SMILES): CC1(C)N=C(N)N=C(N)N1c1ccc(OCC(=O)N2CCOCC2)cc1
- T/C [15]: 113 % of control
- T/C [16]: 113 % of control

Structure (SMILES): O=C1C(=O)c2ccccc2C([O-])=C1[n+]1ccccc1
- T/C [2]: 109 % of control
- T/C [3]: 95 % of control
- T/C [13]: 90 % of control

Structure (SMILES): CN1N=Nc2cccc3cccc1c23
- T/C [15]: 105 % of control
- T/C [16]: 100 % of control
- T/C (dose: 100.0 mg/kg/injection, schedule: Q01DX009 (ip), vehicle: saline): 105 % of control

Structure (SMILES): CC1(C)OS2(OC(C)(C)c3ccccc32)c2ccccc21
- T/C (dose: 50.0 mg/kg/injection, schedule: Q01DX009 (ip), vehicle: other): 101 % of control
- T/C (dose: 100.0 mg/kg/injection, schedule: Q01DX009 (ip), vehicle: other): 107 % of control
- T/C (dose: 200.0 mg/kg/injection, schedule: Q01DX009 (ip), vehicle: other): 117 % of control
